Results reported in patent US8257478B2, “Use of marine fungus originated compounds as antifouling agents” (The Hong Kong University of Science and Technology, priority 2004, dated 2012).
In brackets after ≈: the same amount, converted by molar mass. Where two headings read alike, the source gives them in different places.

Assays:
Vibrio furnissii = assay: agar disc diffusion assay, inhibition zone; type: cell-based; conditions: 24 h, read-out: Inhibition Zone Width
Experimental: (§1) Antibacterial activity was tested against bacteria using agar disc diffusion assay. Sterile paper discs (6 mm i.d.) impregnated with the substance under test at a concentration of 50 μg disc^−1 were applied onto the surface of an agar plate (plastic Petri dish) inoculated with one strain with sterile forceps and gently pressed down to ensure good contact with the surface. Blank discs treated with the same volume of DMSO were added. A control disc containing streptomycin was used. After the application of discs, the plates were incubated at 30° C. for 24 h. The size of the inhibition zone was measured. The results are presented in Table 8 and Table 9 for Cyclo (D)-Pro-(D)-Phe and b3-methyl-N-(2-phenylethyl)butanamide, respectively.

Vibrio alginolyticus = assay: agar disc diffusion assay, inhibition zone; type: cell-based; conditions: 24 h, read-out: Inhibition Zone Width
Experimental: as §1

Vibrio vulnificus = assay: agar disc diffusion assay, inhibition zone; type: cell-based; conditions: 24 h, read-out: Inhibition Zone Width
Experimental: as §1

Rhodovulum sp. = assay: agar disc diffusion assay, inhibition zone; type: cell-based; conditions: 24 h, read-out: Inhibition Zone Width
Experimental: as §1

Vibrio halioticoli = assay: agar disc diffusion assay, inhibition zone; type: cell-based; conditions: 24 h, read-out: Inhibition Zone Width
Experimental: as §1

Loktanella hongkongensis = assay: agar disc diffusion assay, inhibition zone; type: cell-based; conditions: Limimaricola hongkongensis, 24 h, read-out: Inhibition Zone Width
Experimental: as §1

[1] = tested on: Balanus amphitrite larvae; assay: in vivo
Experimental: (§2) The larval bioassay was conducted according to Rittschof et al. (1994), which is incorporated by reference herein in its entirety.
(§3) Toxicity of cyclo (D)-Pro-(D)-Phe was determined using 24-well polystyrene plates. Pure compound was dissolved in DMSO and added to autoclaved FSW to form different concentrations. Competent Balanus amphitrites larvae (10±2 individuals) were added to each well with 1 ml testing solution in 5 replicates. The wells containing FSW served as the control. The 24-well plates were incubated at 30° C. for 24 h. The percent mortality was determined by counting the number of dead larvae under a dissecting microscope.
(§4) The assay was conducted according to Rittschof et al. (1994). Data plotted are means+SD of five replicates.

in vivo = conditions: Balanus amphitrite (barnacle) larvae, in vivo
Experimental: as §2, §3, §4

[2] = solubility in organic solvents; type: physicochemical; conditions: at 25° C. in methanol, ethanol, propanol, butanol
[3] = tested on: barnacle Balanus amphitrite larvae; assay: anti-larval settlement bioassay in 24-well plates; type: in vivo; conditions: for EC50: Amphibalanus amphitrite, read-out: EC50 (anti-larval settlement)
Experimental: Anti-larval settlement activity of 3-chloro-2,5-dihydroxy benzyl alcohol (compound 1) was conducted using 24-well polystyrene plates. Pure compound was dissolved in DMSO and added to autoclaved FSW at different concentrations. Competent Balanus amphitrites larvae (10±2 individuals) were added to each well with 1 ml testing solution in 5 replicates, and wells containing FSW (filtered seawater) served as control. The 24-well plates were incubated at 30° C. for 24 h. The percent settlement was determined by counting the number of settled larvae under a dissecting microscope. In all bioassays, FSW served as the control. Statistical calculations were performed with the SPSS (Statistical Package for the Social Sciences) software package, Version 11.
as §2, §4
For determining anti-larval settlement activity, adult Balanus amphitrile (Darwin) were collected from the intertidal zone in Hong Kong (22°19′N, 114°16′E). Nauplii obtained from several adults were mass-reared to cyprid stage at a density of 2 larvae ml^−1 in 0.22-μm-filtered seawater with 30 ppt salinity (FSW) using Chaetoceros gracilis Schutt as food and a rearing temperature of 28° C. Newly transformed cyprids were used for the experiment.
Anti-larval settlement activity of succinic acid against B. amphitrite was determined using 24-well polystyrene plates. Pure compound was dissolved in autoclaved FSW ranged from 60-140 μg ml^−1 for B. amphitrite. Competent larvae (15±2 individuals) were added to each well with 1 ml testing solution in 5 replicates, and wells containing FSW served as the control. The 24-well plates were incubated at 30° C. for 24 h. The percent larval settlement was determined by counting the number of settled individuals under a dissecting microscope and expressed as a proportion of the total number of larvae in the well.

Vibrio harveyi = assay: agar disc diffusion assay, inhibition zone; type: cell-based; conditions: 50 μg/disc, 30° C., 24 h, read-out: Inhibition Zone Width
Experimental: as §1, with “using an” for “using”, “diffusion assay method.” for “diffusion assay.”, “control disc,” for “control disc”, “24 h, and then the” for “24 h. The”, “measured.” for “measured. The results are presented in Table 8 and Table 9 for Cyclo (D)-Pro-(D)-Phe and b3-methyl-N-(2-phenylethyl)butanamide, respectively.”
as §1

Vibrio fluvialis = assay: agar disc diffusion assay, inhibition zone; type: cell-based; conditions: 50 μg/disc, 30° C., 24 h, read-out: Inhibition Zone Width
Experimental: as §1, with “using an” for “using”, “diffusion assay method.” for “diffusion assay.”, “control disc,” for “control disc”, “24 h, and then the” for “24 h. The”, “measured.” for “measured. The results are presented in Table 8 and Table 9 for Cyclo (D)-Pro-(D)-Phe and b3-methyl-N-(2-phenylethyl)butanamide, respectively.”
as §1

Moraxella phenylpyruvica = assay: agar disc diffusion assay, inhibition zone; type: cell-based; conditions: Psychrobacter phenylpyruvicus; 50 μg/disc, 30° C., 24 h; read-out: Inhibition Zone Width
Experimental: as §1, with “using an” for “using”, “diffusion assay method.” for “diffusion assay.”, “control disc,” for “control disc”, “24 h, and then the” for “24 h. The”, “measured.” for “measured. The results are presented in Table 8 and Table 9 for Cyclo (D)-Pro-(D)-Phe and b3-methyl-N-(2-phenylethyl)butanamide, respectively.”
as §1

Vibrio sp. (NAP-4) = assay: agar disc diffusion assay, inhibition zone; type: cell-based; conditions: 24 h, read-out: Inhibition Zone Width
Experimental: as §1, with “using an” for “using”, “diffusion assay method.” for “diffusion assay.”, “control disc,” for “control disc”, “24 h, and then the” for “24 h. The”, “measured.” for “measured. The results are presented in Table 8 and Table 9 for Cyclo (D)-Pro-(D)-Phe and b3-methyl-N-(2-phenylethyl)butanamide, respectively.”
as §1

[4] = tested on: Pseudoalteromonas piscida; assay: agar disc diffusion assay, inhibition zone; type: cell-based; conditions: 50 μg/disc, 30° C., 24 h, read-out: Inhibition Zone Width
Experimental: as §1, with “using an” for “using”, “diffusion assay method.” for “diffusion assay.”, “control disc,” for “control disc”, “24 h, and then the” for “24 h. The”, “measured.” for “measured. The results are presented in Table 8 and Table 9 for Cyclo (D)-Pro-(D)-Phe and b3-methyl-N-(2-phenylethyl)butanamide, respectively.”
as §1

[5] = tested on: Staphylococcus haemolyticus; assay: agar disc diffusion assay, inhibition zone; type: cell-based; conditions: 50 μg/disc, 30° C., 24 h, read-out: Inhibition Zone Width
Experimental: as §1, with “using an” for “using”, “diffusion assay method.” for “diffusion assay.”, “control disc,” for “control disc”, “24 h, and then the” for “24 h. The”, “measured.” for “measured. The results are presented in Table 8 and Table 9 for Cyclo (D)-Pro-(D)-Phe and b3-methyl-N-(2-phenylethyl)butanamide, respectively.”
as §1

Pseudoalteromonas sp. = assay: agar disc diffusion assay, inhibition zone; type: cell-based; conditions: 50 μg/disc, 30° C., 24 h, read-out: Inhibition Zone Width
Experimental: as §1, with “using an” for “using”, “diffusion assay method.” for “diffusion assay.”, “control disc,” for “control disc”, “24 h, and then the” for “24 h. The”, “measured.” for “measured. The results are presented in Table 8 and Table 9 for Cyclo (D)-Pro-(D)-Phe and b3-methyl-N-(2-phenylethyl)butanamide, respectively.”
as §1

Micrococcus luteus = assay: agar disc diffusion assay, inhibition zone; type: cell-based; conditions: 50 μg/disc, 30° C., 24 h, read-out: Inhibition Zone Width
Experimental: as §1, with “using an” for “using”, “diffusion assay method.” for “diffusion assay.”, “control disc,” for “control disc”, “24 h, and then the” for “24 h. The”, “measured.” for “measured. The results are presented in Table 8 and Table 9 for Cyclo (D)-Pro-(D)-Phe and b3-methyl-N-(2-phenylethyl)butanamide, respectively.”
as §1

Shewanella algae = assay: agar disc diffusion assay, inhibition zone; type: cell-based; conditions: 50 μg/disc, 30° C., 24 h, read-out: Inhibition Zone Width
Experimental: as §1, with “using an” for “using”, “diffusion assay method.” for “diffusion assay.”, “control disc,” for “control disc”, “24 h, and then the” for “24 h. The”, “measured.” for “measured. The results are presented in Table 8 and Table 9 for Cyclo (D)-Pro-(D)-Phe and b3-methyl-N-(2-phenylethyl)butanamide, respectively.”
as §1

Staphylococcus aureus = assay: agar disc diffusion assay, inhibition zone; type: cell-based; conditions: 50 μg/disc, 30° C., 24 h, read-out: Inhibition Zone Width
Experimental: as §1, with “using an” for “using”, “diffusion assay method.” for “diffusion assay.”, “control disc,” for “control disc”, “24 h, and then the” for “24 h. The”, “measured.” for “measured. The results are presented in Table 8 and Table 9 for Cyclo (D)-Pro-(D)-Phe and b3-methyl-N-(2-phenylethyl)butanamide, respectively.”

Ruegeria sp. = assay: agar disc diffusion assay, inhibition zone; type: cell-based; conditions: 50 μg/disc, 30° C., 24 h; read-out: Inhibition Zone Width
Experimental: as §1, with “using an” for “using”, “diffusion assay method.” for “diffusion assay.”, “control disc,” for “control disc”, “24 h, and then the” for “24 h. The”, “measured.” for “measured. The results are presented in Table 8 and Table 9 for Cyclo (D)-Pro-(D)-Phe and b3-methyl-N-(2-phenylethyl)butanamide, respectively.”

[6] = Balanus amphitrite, in vivo, 24 h
[7] = ethyl acetate, acetone and acetonitrile

Row | Compound | therapeutic ratio LC50/EC50 [1, 6] | LC50 at 24 h (in vivo) [µg/mL] | solubility [2, 7] | EC50 ([3]; Balanus amphitrite larvae) [µg/mL] | zone of inhibition at 50 µg/disc (Vibrio harveyi) [mm] | zone of inhibition at 50 µg/disc (Vibrio fluvialis) [mm] | zone of inhibition at 50 µg/disc (Moraxella phenylpyruvica) [mm] | zone of inhibition at 50 µg/disc (Vibrio sp. (NAP-4); 50 μg/disc, 30° C.) [mm] | zone of inhibition at 50 µg/disc [4] [mm] | zone of inhibition at 50 µg/disc [5] [mm] | zone of inhibition at 50 µg/disc (Pseudoalteromonas sp.) [mm] | zone of inhibition at 50 µg/disc (Micrococcus luteus) [mm] | zone of inhibition at 50 µg/disc (Shewanella algae) [mm] | other results
1 | O=C1NC(Cc2ccccc2)C(=O)N2CCCC12 (centres unmarked) [Compound 2, cyclo-(Pro-Phe)] | 1.70 | 115 (≈ 470 µM) | soluble | 67.3 (≈ 275 µM) | 0.5 | 1.2 ± 0.7 | 0 | 1.3 ± 0.6 | 0 | 0.8 ± 0.3 | 1.7 ± 0.6 | 0.5 | 0 | zone of inhibition at 50 µg/disc (Vibrio furnissii; 50 μg/disc, 30° C.): 0 mm; zone of inhibition at 50 µg/disc (Vibrio alginolyticus; 50 μg/disc, 30° C.): 0 mm; zone of inhibition at 50 µg/disc (Vibrio vulnificus; 50 μg/disc, 30° C.): 1 ± 0.1 mm; zone of inhibition at 50 µg/disc (Rhodovulum sp.; 50 μg/disc, 30° C.): 0 mm; zone of inhibition at 50 µg/disc (Vibrio halioticoli; 50 μg/disc, 30° C.): 0 mm; zone of inhibition at 50 µg/disc (Loktanella hongkongensis; 50 μg/disc, 30° C.): 1.3 ± 0.6 mm
2 | OCc1cc(O)cc(Cl)c1O [Compound 1, 3-chloro-2,5-dihydroxy benzyl alcohol] | 76.2 | 267 (≈ 1530 µM) | soluble | 3.5 (≈ 20 µM) | 3.5 | 5.5 | 5.5 | 4 | 5 | 6 | 5.5 | 6 | 4.5 | zone of inhibition at 50 µg/disc (Staphylococcus aureus): 5.5 mm; zone of inhibition at 50 µg/disc (Ruegeria sp.): 3.5 mm; concentration at which compound started showing anti-settlement effects ([3]; as low as): 0.1 µg/mL; barnacle larval settlement ([3]; at 5 μg ml^−1, 24 h, 60% in the control): about 10%
3 | CC(C)CC(=O)NCCc1ccccc1 [Compound 3, 3-methyl-N-(2-phenylethyl) butanamide] | – | 81.4 (≈ 396 µM) | – | – | 0 | 0 | 0 | – | 1.5 | 0.5 | 0 | 3.3 ± 0.6 | 1.3 ± 0.6 | zone of inhibition at 50 µg/disc (Vibrio furnissii): 0 mm; zone of inhibition at 50 µg/disc (Vibrio alginolyticus): 1.7 ± 0.6 mm; zone of inhibition at 50 µg/disc (Vibrio vulnificus): 1.2 ± 0.7 mm; zone of inhibition at 50 µg/disc (Rhodovulum sp.): 3 ± 0.5 mm; zone of inhibition at 50 µg/disc (Vibrio halioticoli): 0 mm; zone of inhibition at 50 µg/disc (Loktanella hongkongensis): 0.5 mm; therapeutic ratio LC50/EC50 ([1]; Balanus amphitrite larvae): 2.23; toxic symptoms ([1]; at the concentration of 50 μg ml^−1, 24 h): did not induce any toxic symptoms; solubility ([2]; ethyl acetate acetone, chloroform, dichloromethane and acetonitrile): soluble; EC50 [3]: 36.5 µg/mL (≈ 178 µM); zone of inhibition at 50 µg/disc (Vibrio sp. (NAP-4)): 0 mm
